From ChEMBL document CHEMBL1127021, “Structure-activity relationship of a series of phenylureas linked to 4-phenylimidazole. Novel potent inhibitors of acyl-CoA:cholesterol O-acyltransferase with antiatherosclerotic activity. 2” (J Med Chem, 1993) come the findings set out here.

Assay [1] has as its target T1, Acyl-CoA:cholesterol acyltransferase (Oryctolagus cuniculus, UniProt Q95214).
T1 sequence (Q95214 whole entry): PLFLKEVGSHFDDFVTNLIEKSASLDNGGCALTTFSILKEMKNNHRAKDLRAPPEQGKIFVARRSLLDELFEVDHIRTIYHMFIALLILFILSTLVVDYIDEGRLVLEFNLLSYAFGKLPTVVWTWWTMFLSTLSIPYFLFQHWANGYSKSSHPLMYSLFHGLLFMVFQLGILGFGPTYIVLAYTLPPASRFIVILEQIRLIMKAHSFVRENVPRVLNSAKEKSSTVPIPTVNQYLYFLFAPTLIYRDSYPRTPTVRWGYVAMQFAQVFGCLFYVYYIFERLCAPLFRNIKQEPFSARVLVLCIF
The assay can be described thus: Inhibition against acyl coenzyme A:cholesterol acyltransferase derived from rabbit aorta homogenate. It is filed as tissue-based.

A further assay addresses O-acyltransferase (Oryctolagus cuniculus, UniProt G1SFD9). The assay can be described thus: Inhibition against acyl coenzyme A:cholesterol acyltransferase derived from rabbit intestine microsomes.
Assay [2] has as its system Rattus norvegicus. The assay can be described thus: Cholesterol lowering activity in rats after a dose of 1 mg/kg once a day for 2 days. It is filed as functional.
In assay [3] the test system is Rattus norvegicus. The assay can be described thus: Cholesterol lowering activity in rats after a dose of 4 mg/kg once a day for 2 days. Type of assay: functional.

Some results are limits rather than exact numbers.

Chain of O-acyltransferase (G1SFD9 1-524): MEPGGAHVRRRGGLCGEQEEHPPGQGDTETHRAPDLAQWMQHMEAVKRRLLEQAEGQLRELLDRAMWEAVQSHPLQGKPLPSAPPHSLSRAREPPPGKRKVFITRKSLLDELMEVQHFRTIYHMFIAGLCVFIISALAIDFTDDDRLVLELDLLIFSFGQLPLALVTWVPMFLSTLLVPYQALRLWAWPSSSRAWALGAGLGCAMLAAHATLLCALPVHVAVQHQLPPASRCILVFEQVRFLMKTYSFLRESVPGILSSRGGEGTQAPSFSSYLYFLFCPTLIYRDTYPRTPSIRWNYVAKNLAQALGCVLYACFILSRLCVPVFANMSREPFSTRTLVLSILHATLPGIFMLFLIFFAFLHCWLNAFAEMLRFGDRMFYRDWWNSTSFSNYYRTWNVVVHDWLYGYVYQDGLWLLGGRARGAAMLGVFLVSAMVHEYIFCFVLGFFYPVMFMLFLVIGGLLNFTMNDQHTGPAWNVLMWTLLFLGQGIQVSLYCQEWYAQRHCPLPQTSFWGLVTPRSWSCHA

For `CCCCCNC(=O)Nc1c(C)cccc1OCCCn1cnc(-c2ccccc2)c1CO`, the IC50 in assay [1] amounted to 200 nM; against O-acyltransferase it was 210 nM. For the same compound, the Cholesterol reduction was -29% in the assay on Rattus norvegicus [2] and -55% in the assay with Rattus norvegicus [3].
`CCCCCNC(=O)Nc1c(OC)cccc1OCCCn1cnc(-c2ccccc2)c1C`: the IC50 in assay [1] came to 220 nM; on O-acyltransferase it was 90 nM. Besides, the Cholesterol reduction in the assay with Rattus norvegicus [3] is listed as -34%.
With `Cc1cccc(OCCCn2cnc(-c3ccccc3)c2)c1NC(=O)NCCC(C)C`, the IC50 in assay [1] turned out to be 370 nM; against O-acyltransferase, 230 nM. In addition, the Cholesterol reduction with Rattus norvegicus [2] is -41%.
As for `CCCCCNC(=O)Nc1c(C)cccc1OCCCn1cnc(-c2ccccc2)c1Cl`, the IC50 in assay [1] was found to be 84 nM. The Cholesterol reduction in the assay on Rattus norvegicus [2] is -41%.
For `Cc1cccc(OCCCn2cnc(-c3ccccc3)c2Cl)c1NC(=O)NCCC(C)C`, the IC50 was determined as 88 nM in assay [1] and 140 nM at O-acyltransferase. Besides, the Cholesterol reduction in the assay with Rattus norvegicus [2] was -59%.
With `CCCCCNC(=O)Nc1c(NS(C)(=O)=O)cccc1OCCCn1cnc(-c2ccccc2)c1C`, the figures for the IC50 (in assay [1]; against O-acyltransferase) were 480 nM and 140 nM, respectively. Moreover, in the assay with Rattus norvegicus [3], the Cholesterol reduction was 3.6%.
Regarding `CCCCNC(=O)Nc1c(C)cccc1OCCCn1cnc(-c2ccccc2)c1CO`, the IC50 is 590 nM in assay [1] and 190 nM at O-acyltransferase. Moreover, the Cholesterol reduction in the assay with Rattus norvegicus [2] is listed as -21%.
In the case of `CCCCCNC(=O)Nc1c(NC)cccc1OCCCn1cnc(-c2ccccc2)c1C`, the IC50 in assay [1] stood at 600 nM; on O-acyltransferase it was 150 nM. Moreover, the Cholesterol reduction with Rattus norvegicus [3] was -35%.
On to `CCCCCNC(=O)Nc1c(C)cccc1OCCCn1cnc(-c2ccccc2)c1CS(C)(=O)=O`, for which the half-maximal inhibitory concentration (IC50) in assay [1] is more than 1000 nM; against O-acyltransferase, 410 nM.
With `CCCCCNC(=O)Nc1c(Cl)cccc1OCCCn1cnc(-c2ccccc2)c1C`, the concentration for half-maximal inhibition (IC50) was 100 nM in assay [1] and 73 nM on O-acyltransferase. The Cholesterol reduction in the assay on Rattus norvegicus [3] is recorded as -49%.
As for `CCCCCNC(=O)Nc1c(C)cccc1OCCCn1cnc(-c2ccc(Cl)cc2)c1`, the figures for the 50% inhibitory concentration (IC50) (in assay [1]; on O-acyltransferase) were 260 nM and 120 nM, respectively. Also, the Cholesterol reduction in the assay with Rattus norvegicus [2] is recorded as -43%; in the assay with Rattus norvegicus [3], -59%.
Turning to `CCc1c(-c2ccccc2)ncn1CCCOc1cccc(C)c1NC(=O)NCC(C)(C)C`, the IC50 in assay [1] was found to be 68 nM; at O-acyltransferase, 460 nM. Further, the Cholesterol reduction in the assay with Rattus norvegicus [2] is -55%.
Turning to `CCCCCNC(=O)Nc1c(C)cccc1OCCCn1cnc(-c2ccccc2NS(C)(=O)=O)c1`, the IC50 in assay [1] stood at 240 nM; against O-acyltransferase, 450 nM. Also, in the assay with Rattus norvegicus [3], the Cholesterol reduction is -39%.
For the compound `CCCCCNC(=O)Nc1ccccc1OCCCn1cnc(-c2ccccc2)c1C`, the IC50 in assay [1] is 390 nM; at O-acyltransferase, 230 nM. In addition, the Cholesterol reduction in the assay on Rattus norvegicus [3] is on record as 3.9%.
As to `CCCCCNC(=O)Nc1c(C)cccc1CSCCn1cnc(-c2ccccc2)c1C`, the values for the IC50 (in assay [1]; against O-acyltransferase) were 70 nM and 570 nM, respectively. Besides, the Cholesterol reduction in the assay with Rattus norvegicus [3] is given as -11%.
On to `CCCCCNC(=O)Nc1c(C)cccc1[S+]([O-])CCCn1cnc(-c2ccccc2)c1C` (stereo not drawn), for which the IC50 (in assay [1]; on O-acyltransferase) was more than 1000 nM each time.
On to `CCCCCNC(=O)Nc1c(OCCCn2cnc(-c3ccccc3)c2C)cccc1SC`, for which the results for the IC50 (in assay [1]; against O-acyltransferase) were 19 nM and 230 nM, respectively.
In the case of `CCCCCNC(=O)Nc1c(C)cccc1CS(=O)(=O)CCn1cnc(-c2ccccc2)c1C`, the IC50 is 90 nM in assay [1] and more than 1000 nM at O-acyltransferase.
Take `CCCCNC(=O)Nc1c(C)cccc1OCCCn1cnc(-c2ccccc2)c1Cl`: the figures for the IC50 (in assay [1]; at O-acyltransferase) were 210 nM and 55 nM, respectively. In the assay with Rattus norvegicus [2], the Cholesterol reduction was -40%.
Regarding `CCCCCNC(=O)Nc1c(O)cccc1OCCCn1cnc(-c2ccccc2)c1C`, the IC50 in assay [1] is 960 nM; at O-acyltransferase, 460 nM.
On to `CCCCCNC(=O)Nc1c(OCCCn2cnc(-c3ccccc3)c2C)cccc1S(C)(=O)=O`, for which the IC50 was determined as 50 nM in assay [1] and 140 nM against O-acyltransferase. The Cholesterol reduction with Rattus norvegicus [3] is -33%.
As to `CCCCCNC(=O)Nc1c(NS(=O)(=O)C(F)(F)F)cccc1OCCCn1cnc(-c2ccccc2)c1C`, the half-inhibitory concentration (IC50) in assay [1] is more than 10000 nM; at O-acyltransferase, more than 1000 nM.
On to `Cc1cccc(OCCCn2cnc(-c3ccccc3)c2C(C)C)c1NC(=O)NCCC(C)C`, for which the IC50 was determined as 19 nM in assay [1] and 280 nM on O-acyltransferase. Besides, the Cholesterol reduction in the assay on Rattus norvegicus [2] is on record as -40%.
`CCCCCNC(=O)Nc1c(C)cccc1OCCCn1cnc(-c2ccccc2)c1C(=O)O`: the IC50 (in assay [1]; against O-acyltransferase) was more than 1000 nM throughout.
Take `CCCCCNC(=O)Nc1c(C)cccc1OCCCn1cnc(-c2cccc(NS(C)(=O)=O)c2)c1`: the IC50 (in assay [1]; at O-acyltransferase) was more than 1000 nM in each case.
For the compound `CCCCCNC(=O)Nc1c(C)cccc1OCCCn1cnc(-c2ccccc2)c1C(=O)OCC`, the IC50 is 55 nM in assay [1] and 150 nM against O-acyltransferase.
Regarding `CCCCCNC(=O)Nc1c(C)cccc1OCCCn1cnc(-c2ccccc2)c1CN(C)C`, the concentration for half-maximal inhibition (IC50) in assay [1] is 310 nM; against O-acyltransferase it was 670 nM. Besides, the Cholesterol reduction in the assay with Rattus norvegicus [3] is -10%.
Turning to `Cc1cccc(OCCCn2cnc(-c3ccccc3)c2CO)c1NC(=O)NCCC(C)C`, the IC50 in assay [1] turned out to be 190 nM; against O-acyltransferase, 230 nM. Moreover, in the assay on Rattus norvegicus [2], the Cholesterol reduction is listed as -52%.
For the compound `CCCCNC(=O)Nc1c(C)cccc1OCCCn1cnc(-c2ccccc2)c1`, the IC50 in assay [1] is 310 nM. Moreover, in the assay on Rattus norvegicus [2], the Cholesterol reduction is -7%.
Regarding `CCCCCNC(=O)Nc1c(C)cccc1OCCCn1cnc(-c2cccc([N+](=O)[O-])c2)c1`, the IC50 in assay [1] turned out to be 290 nM; against O-acyltransferase it was 130 nM. The Cholesterol reduction in the assay with Rattus norvegicus [2] is -15%.
The like results for `CCc1c(-c2ccccc2)ncn1CCCOc1cccc(C)c1NC(=O)NCCC(C)C` were, in that order, 72 nM, 220 nM and -46%.
For `CCCCCNC(=O)Nc1c(C)cccc1OCC(O)Cn1cnc(-c2ccccc2)c1C` (stereo not drawn), the figures for the IC50 (in assay [1]; against O-acyltransferase) were 170 nM and 160 nM, respectively. The Cholesterol reduction in the assay with Rattus norvegicus [3] is -43%.
As for `CCCCCNC(=O)Nc1c(C)cccc1C(=O)NCCn1cnc(-c2ccccc2)c1C`, the results for the IC50 (in assay [1]; at O-acyltransferase) were 280 nM and 97 nM, respectively. Also, the Cholesterol reduction in the assay with Rattus norvegicus [3] was -25%.
The matching figures for `CCCCCNC(=O)Nc1c(F)cccc1OCCCn1cnc(-c2ccccc2)c1C`: 71 nM, 69 nM and -30%.
With `Cc1cccc(OCCCn2cnc(-c3ccccc3)c2)c1NC(=O)NCC(C)(C)C`, the IC50 turned out to be 73 nM in assay [1] and 320 nM at O-acyltransferase. Further, the Cholesterol reduction in the assay with Rattus norvegicus [2] is -46%.
In the case of `CCCCCNC(=O)Nc1c(C)cccc1OCCCn1cnc(-c2cc(OC)c(OC)c(OC)c2)c1`, the IC50 in assay [1] worked out at 900 nM; on O-acyltransferase, 510 nM.
Take `Cc1cccc(OCCCn2cnc(-c3ccccc3)c2C)c1NC(=O)NCC(C)(C)C`: the IC50 in assay [1] is 140 nM; on O-acyltransferase, 210 nM. In the assay with Rattus norvegicus [2], the Cholesterol reduction was -64%.
For `Cc1cccc(OCCCn2cnc(-c3ccccc3)c2Cl)c1NC(=O)NCC(C)(C)C`, the IC50 in assay [1] is 48 nM; at O-acyltransferase it was 200 nM. Also, the Cholesterol reduction in the assay on Rattus norvegicus [2] is -43%.
As to `CCCCCNC(=O)Nc1c(C)cccc1OCCCn1cnc(-c2ccc(NS(C)(=O)=O)cc2)c1`, the IC50 (in assay [1]; on O-acyltransferase) was more than 1000 nM in each case.
As for `CCCCCNC(=O)Nc1c(C)cccc1OCCCn1cnc(-c2ccccc2[N+](=O)[O-])c1`, the IC50 came to 170 nM in assay [1] and 210 nM against O-acyltransferase. The Cholesterol reduction in the assay on Rattus norvegicus [2] is -46%; with Rattus norvegicus [3], -66%.
With `CCCCCNC(=O)Nc1c(C)cccc1OCCCn1cnc(-c2c(OC)cc(OC)cc2OC)c1`, the IC50 (in assay [1]; against O-acyltransferase) was more than 1000 nM each time.
Turning to `CCCCCNC(=O)Nc1c(C#N)cccc1OCCCn1cnc(-c2ccccc2)c1C`, the IC50 is 1900 nM in assay [1] and more than 1000 nM against O-acyltransferase.
Consider `CCCCCNC(=O)Nc1c(C)cccc1S(=O)(=O)CCCn1cnc(-c2ccccc2)c1C`, for which the IC50 in assay [1] worked out at 730 nM; on O-acyltransferase, 600 nM.
Consider `CCCCCNC(=O)Nc1c(C)cccc1COCCn1cnc(-c2ccccc2)c1C`, for which the results for the half-inhibitory concentration (IC50) (in assay [1]; against O-acyltransferase) were 100 nM and 880 nM, respectively. Also, the Cholesterol reduction in the assay with Rattus norvegicus [3] amounted to 2%.
The matching figures for `CCCCCNC(=O)Nc1c(OCCCn2cnc(-c3ccccc3)c2C)cccc1[N+](=O)[O-]`: 60 nM, 44 nM and -52%.
Turning to `CCCCCNC(=O)Nc1c(CN(C)C)cccc1OCCCn1cnc(-c2ccccc2)c1C`, the IC50 in assay [1] amounted to 2600 nM; against O-acyltransferase, 1300 nM.
For `CCCCCNC(=O)Nc1c(N)cccc1OCCCn1cnc(-c2ccccc2)c1C`, the results for the IC50 (in assay [1]; against O-acyltransferase) were 590 nM and 100 nM, respectively. Also, the Cholesterol reduction in the assay with Rattus norvegicus [3] was -21%.
As for `CCCCCNC(=O)Nc1c(C)cccc1OCCCn1cnc(-c2ccccc2)c1C(N)=O`, the IC50 is more than 1000 nM in assay [1] and 180 nM against O-acyltransferase. Besides, the Cholesterol reduction in the assay on Rattus norvegicus [2] was -20%.
In the case of `CCCCCNC(=O)Nc1c(C)cccc1OCCCn1cnc(-c2ccccc2S(C)(=O)=O)c1`, the IC50 was 410 nM in assay [1] and 160 nM at O-acyltransferase. In the assay on Rattus norvegicus [3], the Cholesterol reduction is reported as -19%.
For the compound `CCCCCNC(=O)Nc1c(C)cccc1SCCCn1cnc(-c2ccccc2)c1C`, the values for the IC50 (in assay [1]; at O-acyltransferase) were 86 nM and 77 nM, respectively. In addition, in the assay on Rattus norvegicus [3], the Cholesterol reduction is reported as -7%.
Take `CCCCCNC(=O)Nc1c(C)cccc1C[S+]([O-])CCn1cnc(-c2ccccc2)c1C` (stereo not drawn): the half-inhibitory concentration (IC50) in assay [1] is 440 nM; at O-acyltransferase, more than 1000 nM.

In general, IC50 refers to the midpoint of a concentration-inhibition curve.
